Assays:
human D2 receptor = molecular target: T1, human D2 receptor (Homo sapiens, UniProt P14416); assay: Test 1: binding activity for human D2 receptor ([3H]Spiperone, CHO cell membrane fraction); conditions: for D2 Ki/5-HT2A Ki / D2 Ki/5-HT7 Ki: ratio of Ki values
T1 construct: purchased PerkinElmer, Inc; host or cells: CHO cells (membrane fraction)
Method: (§1) Ki value was evaluated from dissociation constant which was calculated from saturated binding tests, and a substrate concentration, and it was used as an index for binding affinity.

[1] = Test 3-1: metabolic stability test in human hepatic microsome; type: in vitro ADME; conditions: Test 3-1: microsome 0.1 mg/mL, test compound 0.1 μmol/L, 37° C., 30 minutes
Method: Test 3-1: Metabolic Stability Test in Human Hepatic Microsome
(§2) The metabolic stability of the present compound in human hepatic microsome was evaluated as mentioned below. Human hepatic microsome was obtained from Xenontech. Human hepatic microsome, NADPH, and each test compound were mixed in 25 mmol/L phosphate buffer solution (pH 7.4) to reach the following concentrations as shown below, and the mixture was incubated at 37° C. for 30 minutes. • Human hepatic microsome: 0.1 mg/mL • NAPDH: 3.2 mmol/L • Test compound: 0.1 μmol/L
(§3) The residual ratio of test compound in each sample after 30 minutes was measured by LC-MS, and the metabolic stability in human hepatic microsome was calculated from the following formula. Metabolic stability in human hepatic microsome(mL/min/mg protein)=−LN(residual ratio)/30/0.1

[2] = Test 3-2: metabolic stability test in human hepatic microsome (higher microsome concentration); type: in vitro ADME; conditions: Test 3-2: microsome 0.5 or 1.0 mg/mL, test compound 0.1 μmol/L, 30 or 60 minutes
Method: Test 3-2: Metabolic Stability Test in Human Hepatic Microsome
as §2, with “For more accurate evaluation of the metabolic stability in human hepatic microsome, the metabolic” for “The metabolic”, “evaluated at an appropriate concentration of human hepatic microsome” for “evaluated”, “for 60” for “for 30”, “microsome: 0.5 or 1.0” for “microsome: 0.1”
as §3, with “of a” for “of”, “30 or 60” for “30”, “ratio)/reaction time/concentration of human hepatic microsome” for “ratio)/30/0.1”

human 5-HT7 receptor [3] = molecular target: T2, human 5-HT7 receptor (Homo sapiens, UniProt P34969); assay: Test 2: antagonist activity for human 5-HT7 receptor (aequorin luminescence, CHO-K1 cells); type: cell-based; conditions: Gα16
Method: (§4) Test 2: Evaluation of Antagonist Activity for Human 5-HT2A Receptor and Human 5-HT7 Receptor
(§5) Aequorin, Gα 16 protein, and each receptor were transiently expressed in CHO-K1 cells (Chinese hamster ovary). The cells were cultivated in a CO2 incubator at 37° C. overnight, seeded into a 384-well plate, and stood at room temperature for 2 hours. Each compound dissolved in DMSO was added thereto, and changes in luminescence were measured by FDSS/μCELL drug discovery screening support system (Hamamatsu Photonics K.K.). As for antagonist activity, inhibitory activity of each compound was calculated by setting the luminescence level of wells to which 10 μmol/L endogenous ligand was added as 100%.

human 5-HT2A receptor [4] = molecular target: T3, human 5-HT2A receptor (Homo sapiens, UniProt P28223); assay: Test 2: antagonist activity for human 5-HT2A receptor (aequorin luminescence, CHO-K1 cells); type: cell-based; conditions: Gα16
Method: as §4, §5

human 5-HT7 receptor [5] = molecular target: T2, human 5-HT7 receptor; assay: Test 1: binding activity for human 5-HT7 receptor ([3H]SB-269970, CHO cell membrane fraction)
Method: as §1

human 5-HT2A receptor [6] = molecular target: T3, human 5-HT2A receptor; assay: Test 1: binding activity for human 5-HT2A receptor ([3H]Ketanserin, CHO cell membrane fraction)
Method: as §1

hERG channel = molecular target: T4, hERG channel (Homo sapiens, UniProt Q12809); assay: Test 5: inhibitory activity for hERG channel (whole cell patch clamp, hERG-CHO cells); type: cell-based
T4 construct: host or cells: hERG-CHO cells
Method: Test 5: Evaluation of Inhibitory Activity for hERG Channel
Inhibitory activity of the present compound for hERG channel was measured by whole cell patch clamp method with an auto patch clamp system using CHO cells in which hERG channel involved in human rapidly activating delayed rectifier potassium current (IKr) was forcibly expressed.
hERG-CHO cells purchased from ChanTest Cop. were cultured in a CO2 incubator at 37° C., and dissociated from a flask with trypsin shortly before the measurement of hERG current to prepare a cell suspension.
The cell suspension, the extracellular fluid, the intracellular fluid, and the measurement plate were set in an auto patch clamp system, and hERG current was measured by whole cell patch clamp method. […] Each pulse interval was 15 seconds. The data analysis was carried out with Qube Assay Software (Sophion Sophion). The test was carried out by applying incrementally 4 concentrations of each test compound, and the average of the maximum peak tail currents which were obtained from the last 3 stimulations in each concentration was determined as the evaluated data.

T1 sequence (P14416 whole entry): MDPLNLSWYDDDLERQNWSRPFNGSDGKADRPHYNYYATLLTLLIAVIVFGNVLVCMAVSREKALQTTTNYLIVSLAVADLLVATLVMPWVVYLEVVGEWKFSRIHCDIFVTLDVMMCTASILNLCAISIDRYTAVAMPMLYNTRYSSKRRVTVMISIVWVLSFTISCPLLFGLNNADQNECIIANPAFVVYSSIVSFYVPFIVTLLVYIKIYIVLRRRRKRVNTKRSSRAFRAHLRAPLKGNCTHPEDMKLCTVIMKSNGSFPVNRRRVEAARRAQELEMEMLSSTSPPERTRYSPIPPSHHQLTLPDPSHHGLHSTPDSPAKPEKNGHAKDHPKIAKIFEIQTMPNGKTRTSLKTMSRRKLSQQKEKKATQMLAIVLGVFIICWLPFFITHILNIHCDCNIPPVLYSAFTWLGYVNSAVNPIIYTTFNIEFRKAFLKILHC
T4 sequence (Q12809 whole entry): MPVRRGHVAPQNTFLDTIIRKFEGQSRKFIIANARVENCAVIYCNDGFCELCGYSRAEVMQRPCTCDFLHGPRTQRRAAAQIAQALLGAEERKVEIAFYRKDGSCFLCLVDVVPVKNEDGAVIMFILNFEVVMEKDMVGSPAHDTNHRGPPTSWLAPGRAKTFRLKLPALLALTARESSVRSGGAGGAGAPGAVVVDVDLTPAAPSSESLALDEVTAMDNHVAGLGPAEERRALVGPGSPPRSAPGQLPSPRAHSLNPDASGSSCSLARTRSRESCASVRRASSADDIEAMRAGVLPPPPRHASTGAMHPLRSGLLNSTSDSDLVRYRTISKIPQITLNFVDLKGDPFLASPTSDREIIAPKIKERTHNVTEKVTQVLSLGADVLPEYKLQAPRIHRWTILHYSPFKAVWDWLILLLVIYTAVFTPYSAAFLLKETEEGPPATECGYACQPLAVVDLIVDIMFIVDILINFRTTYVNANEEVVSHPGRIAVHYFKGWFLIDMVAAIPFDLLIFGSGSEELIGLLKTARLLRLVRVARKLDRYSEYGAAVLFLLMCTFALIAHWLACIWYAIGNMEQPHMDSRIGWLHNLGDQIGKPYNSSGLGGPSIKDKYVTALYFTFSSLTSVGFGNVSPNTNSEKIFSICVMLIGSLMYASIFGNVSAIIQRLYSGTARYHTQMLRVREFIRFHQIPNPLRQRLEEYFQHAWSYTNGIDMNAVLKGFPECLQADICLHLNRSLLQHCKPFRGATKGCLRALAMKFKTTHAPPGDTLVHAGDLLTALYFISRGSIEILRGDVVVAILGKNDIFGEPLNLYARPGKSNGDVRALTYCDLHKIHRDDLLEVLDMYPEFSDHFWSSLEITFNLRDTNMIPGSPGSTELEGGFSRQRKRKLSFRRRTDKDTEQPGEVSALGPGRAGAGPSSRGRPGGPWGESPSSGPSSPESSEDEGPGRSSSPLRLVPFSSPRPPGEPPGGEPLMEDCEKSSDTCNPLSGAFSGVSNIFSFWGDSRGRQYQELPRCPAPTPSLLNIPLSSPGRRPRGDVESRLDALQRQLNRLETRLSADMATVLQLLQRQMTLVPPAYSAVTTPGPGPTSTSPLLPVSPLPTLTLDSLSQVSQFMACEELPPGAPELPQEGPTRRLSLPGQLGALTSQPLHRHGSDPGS
T2 sequence (P34969 whole entry): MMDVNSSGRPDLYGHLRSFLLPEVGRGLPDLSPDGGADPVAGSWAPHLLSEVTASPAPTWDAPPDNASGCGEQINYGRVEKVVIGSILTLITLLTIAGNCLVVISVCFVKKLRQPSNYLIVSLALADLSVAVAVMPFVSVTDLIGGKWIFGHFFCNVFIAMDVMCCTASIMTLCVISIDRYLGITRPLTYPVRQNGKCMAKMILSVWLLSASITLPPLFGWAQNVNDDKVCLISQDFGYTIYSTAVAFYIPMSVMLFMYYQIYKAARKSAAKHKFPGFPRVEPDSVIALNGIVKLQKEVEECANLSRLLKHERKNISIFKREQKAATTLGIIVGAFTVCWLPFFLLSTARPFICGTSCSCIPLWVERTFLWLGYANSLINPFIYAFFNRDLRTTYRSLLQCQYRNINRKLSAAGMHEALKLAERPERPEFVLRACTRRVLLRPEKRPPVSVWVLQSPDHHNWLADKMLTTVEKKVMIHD
T3 sequence (P28223 whole entry): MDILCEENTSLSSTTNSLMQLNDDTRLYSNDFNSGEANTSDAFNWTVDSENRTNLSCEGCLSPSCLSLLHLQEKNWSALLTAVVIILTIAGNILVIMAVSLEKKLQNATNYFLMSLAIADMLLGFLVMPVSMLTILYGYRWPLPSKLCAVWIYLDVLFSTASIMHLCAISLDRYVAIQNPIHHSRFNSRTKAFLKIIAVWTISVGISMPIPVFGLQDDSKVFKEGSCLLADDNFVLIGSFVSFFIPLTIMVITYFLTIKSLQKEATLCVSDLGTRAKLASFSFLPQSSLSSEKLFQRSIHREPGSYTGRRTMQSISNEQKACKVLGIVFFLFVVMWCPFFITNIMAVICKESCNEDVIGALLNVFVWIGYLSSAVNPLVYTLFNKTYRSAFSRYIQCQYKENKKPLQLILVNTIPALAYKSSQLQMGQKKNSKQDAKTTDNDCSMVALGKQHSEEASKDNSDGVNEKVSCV

SMILES | Metabolic stability in human hepatic microsome [1] [mL/min/mg protein] | further results
CCN(CCN1CCC(c2noc3cc(F)ccc23)CC1)S(=O)(=O)C(C)CO (stereo not shown) [Example 52] | – | D2 Ki/5-HT2A Ki (human D2 receptor): >34; D2 Ki/5-HT7 Ki (human D2 receptor): >30
CCN(CCN1CCC(c2noc3cc(F)ccc23)CC1)C(=O)C(O)CN (stereo not shown) [Example 65, 3-Amino-N-ethyl-N-{2-[4-(6-fluoro-1,2-benzoisoxazol-3-yl)piperidin-1-yl]ethyl}-2-hydroxypropanamide] | <0.05 | D2 Ki/5-HT2A Ki (human D2 receptor): 48; D2 Ki/5-HT7 Ki (human D2 receptor): 26
CCN(CCN1CCC(c2c[nH]c3ccccc23)CC1)C(=O)C(C)O (stereo not shown) [Example 22, N-Ethyl-2-hydroxy-N-{2-[4-(1H-indol-3-yl)piperidin-1-yl]ethyl}propanamide] | <0.05 | –
CCN(CCN1CCC(c2noc3cc(F)ccc23)CC1)C(=O)C(O)CNC(C)=O (stereo not shown) [Example 71, 3-Acetamide-N-ethyl-N-{2-[4-(6-fluoro-1,2-benzoisoxazol-3-yl)piperidin-1-yl]ethyl}-2-hydroxypropanamide] | <0.05 | IC50 (human 5-HT7 receptor [3]): 78 nM; IC50 (human 5-HT2A receptor [4]): 25 nM; Ki (human D2 receptor; human D2 receptor, [3H]Spiperone): 223 nM; D2 Ki/5-HT2A Ki (human D2 receptor): 99; D2 Ki/5-HT7 Ki (human D2 receptor): 36; Ki (human 5-HT7 receptor [5]): 6.2 nM; Ki (human 5-HT2A receptor [6]): 2.2 nM; IC50 (hERG channel; hERG-CHO cells, auto patch clamp): > 10000 nM; hERG inhibitory IC50 (nmol/L)/5-HT7 Ki (nmol/L) (hERG channel; ratio): >1624
CCN(CCN1CCC(c2c[nH]c3ccccc23)CC1)C(=O)[C@H](C)O [Example 23, (2S)-N-Ethyl-2-hydroxy-N-{2-[4-(1H-indol-3-yl)piperidin-1-yl]ethyl}propanamide] | <0.05 | –
CCN(CCN1CCC(c2noc3cc(F)ccc23)CC1)C(=O)C1CCC(O)CC1 (stereo not shown) [Example 9] | <0.05 | –
CCN(CCN1CCC(c2noc3cc(F)ccc23)CC1)C(=O)C1(O)CCCNC1 (stereo not shown) [Example 69] | <0.05 | –
CCN(CCN1CCC(c2noc3cc(F)c(C)cc23)CC1)C(=O)[C@H](C)O [Example 13] | 0.054 | –
CCN(CCN1CCC(c2c[nH]c3cc(F)ccc23)CC1)C(=O)CCO [Example 48] | <0.05 | –
CCN(CCCN1CCC(c2noc3ccccc23)CC1)S(=O)(=O)C(C)CO (stereo not shown) [Example 54] | <0.05 | –
CC(C)N(CCN1CCC(c2noc3cc(F)ccc23)CC1)C(=O)[C@@H](C)O [Example 42] | <0.05 | –
CCN(CCN1CCC(n2ncc3cc(F)ccc32)CC1)S(=O)(=O)C(C)CO (stereo not shown) [Example 64] | 0.097 | –
CCN(CCN1CCC(c2noc3ccccc23)CC1)C(=O)C(C)O (stereo not shown) [Example 25] | <0.05 | –
CCN(CCN1CCC(c2noc3cc(F)ccc23)CC1)C(=O)[C@H]1CC[C@@H](O)CC1 [Example 44] | <0.05 | –
CCN(CCN1CCC(n2ncc3cc(F)ccc32)CC1)C(=O)[C@@H](C)O [Example 3, (2R)-N-Ethyl-N-{2-[4-(5-fluoro-1H-indazol-1-yl)piperidin-1-yl]ethyl}-2-hydroxypropanamide] | <0.05 | –

Further lines, with some results ahead:

Metabolic stability in human hepatic microsome [1] [mL/min/mg protein] | SMILES | further results
<0.05 | CCN(CCN1CCC(c2noc3cc(F)ccc23)CC1)C(=O)CCO [Example 17, N-Ethyl-N-{2-[4-(6-fluoro-1,2-benzoisoxazol-3-yl)piperidin-1-yl]ethyl}-3-hydroxypropanamide] | Metabolic stability in human hepatic microsome [2]: 0.0025 mL/min/mg protein
<0.05 | CCN(CCCN1CCC(c2noc3cc(F)ccc23)CC1)C(=O)[C@H](C)O [Example 38] | –
<0.05 | CCN(CCN1CCC(c2noc3cc(F)ccc23)CC1)C(=O)C1(O)CC1 [Example 24] | –
<0.05 | CCN(CCN1CCC(c2noc3cc(F)ccc23)CC1)C(=O)C(C)O (stereo not shown) [Example 4] | –
<0.05 | CCN(CCN1CCC(c2noc3cc(F)ccc23)CC1)C(=O)C(O)COC (stereo not shown) [Example 18, N-Ethyl-N-{2-[4-(6-fluoro-1,2-benzoisoxazol-3-yl)piperidin-1-yl]ethyl}-2-hydroxy-3-methoxypropanamide] | –
<0.05 | CCN(CCN1CCC(c2noc3cc(F)ccc23)CC1)S(=O)(=O)CCO [Example 51, N-Ethyl-N-{2-[4-(6-fluoro-1,2-benzoisoxazol-3-yl)piperidin-1-yl]ethyl}-2-hydroxyethane-1-sulfonamide] | Metabolic stability in human hepatic microsome [2]: 0.016 mL/min/mg protein
<0.05 | CCN(CCN1CCC(c2noc3cc(F)c(C)cc23)CC1)S(=O)(=O)CCO [Example 58] | –
0.079 | CCN(CCN1CCC(c2noc3ccc(C)cc23)CC1)S(=O)(=O)CCO [Example 59] | –
<0.05 | CC(O)C(=O)N(CCN1CCC(c2noc3cc(F)ccc23)CC1)C(C)C (stereo not shown) [Example 31] | –
<0.05 | CCN(CCN1CCC(c2noc3cc(F)ccc23)CC1)C(=O)[C@H](C)O [Example 16, (2S)-N-Ethyl-N-{2-[4-(6-fluoro-1,2-benzoisoxazol-3-yl)piperidin-1-yl]ethyl}-2-hydroxypropanamide] | Metabolic stability in human hepatic microsome [2]: 0.018 mL/min/mg protein

— patent US12503463B2, “Aliphatic acid amide derivative” (Sumitomo Pharma Co., Ltd., priority 2019, dated 2025)
